Test results as given in patent publication US20160214941A1, “Compounds for lnhibition of Unregulated Cell Growth” (GODAVARI BIOREFINERIES LIMITED, priority 2013, published 2016).

Assays:
Format in all cases: cell-based
MDA MB 231 cell line = assay: In vitro 3D sphere forming stem cell assay
Method: In Vitro 3D Sphere Forming Stem Cell Assay Compounds of Formula III & IV were evaluated in an in vitro 3D sphere forming stem cell assay as described by Rajasekhar, V K, Analytical Methods for Cancer Stem Cells. Methods in Molecular Biology, 2007, Volume 407, 83-95.
An exemplary procedure for the in vitro 3D sphere forming stem cell assay is described as follows. Breast Cancer Cells were grown in two dimensions on a plastic substrate, harvested in suspension in serum-free media, then the cells in the sample were trypsinized and a single cell suspension was formed by passing through a cell strainer. The cells were diluted according to the predetermined plating efficiency for the cell line being studied by suspending the cells in stem cell culture medium. 100 uL of this suspension was added into each well of a 96 well suspension plate, and the plate was incubated at 37° C. in 5% CO2 atmosphere for 24 hours, then 2 uL of appropriate concentrations of the drugs was added into each respective well along with 100 uL of stem cell culture medium, and the plates incubated at 37° C. under 5% CO2 atmosphere for 72 hours. 2.5 uL of the appropriate drug concentration (Formula III and Formula IV) of was then added to each respective well along with 50 uL of stem cell culture medium, then the plates incubated at 37° C. under 5% CO2 atmosphere for 72 hours. 3 uL of the appropriate drug concentration was added to each respective well along with 50 uL of stem cell culture medium, then incubated at 37° C. under 5% CO2 atmosphere for 72 hours, the spheres formed were observed under a microscope then counted and scored by size.
The number in each box is the total number of spheres formed in the presence of either cisplatin, compound of Formula III or compound of Formula IV at each drug concentration. GC refers to a growth control performed in the absence of drug or solvent (DMSO). GCD refers to a growth control performed in the absence of drug, but in the presence of DMSO.

[1] = tested on: PC3 (Prostrate Cancer) cells; assay: CD44 and CD24 expression on PC3 cells by Flow Cytometry; conditions: 48 hours
Method: A study was conducted to determine the effect of compound of Formula IV and Cisplatin on CD44 and CD24 expression on PC3 (Prostrate Cancer) cells by Flow Cytometry. PC3 cells (0.35×106) were cultured in R.P.M.I (Roswell Park Memorial Institute Medium)-1640 cell culture medium with 10% F.B.S (Fetal Bovine Serum) on 60 mm TC (Tissue Culture) plates. Cells were exposed to IC10 drug concentration of Cisplatin & IC10 drug concentration of compound of Formula IV in duplicates. Similarly other sets were exposed to IC25 drug concentration of Cisplatin & compound of Formula IV in duplicates. IC10 and IC25 drug concentrations were calculated as per MTT results. All the sets were incubated at 37° C., 5% CO2 for 48 hours. After 48 hours, cells were observed under the microscope. Cells were trypsinised, washed with D.P.B.S. (Dulbecco's Phosphate Buffered Saline) and 50 μL of cells were taken for each set and 5 μL of each of CD24 and CD44 antibodies were added. CD24-FITC (Fluorescein isothiocyanate) labeled & CD44-PE (Phycoerythrin) labeled was used for the study. The sets were incubated for 45 minutes at 4° C. in dark for proper binding of antibodies. After incubation the cells were washed with 200 μL of D.P.B.S., supernatant was discarded and the cells were finally suspended in 300 μL of FACS buffer (4% F.B.S in D.P.B.S.). […]

PC3 = assay: In vitro soft agar colony forming growth assay; conditions: PC3, one week
Method: (§1) Compounds of Formula IV were evaluated in an in vitro soft agar colony forming growth inhibition assay as described by Lieber, M M, and Kovach, J S. Soft agar colony formation assay for chemotherapeutic sensitivity of human solid tumors. Mayo Clin Proc 1982; 57: 527-528 and Tanigawa, N, Kern, D H, Kikasa, Y, and Morton, D L. Rapid assay for evaluating the chemosensitivity of human tumors in soft agar culture. Cancer Res 1982; 42: 2159-2164.
(§2) An exemplary procedure for the in vitro soft agar colony forming growth inhibition assay is as follows.

L929 [2] = assay: In vitro soft agar colony forming growth assay; conditions: L929, one week
Method: as §1, §2

SiHa [3] = assay: In vitro soft agar colony forming growth assay; conditions: one week
Method: as §1, §2

T47D [4] = assay: In vitro soft agar colony forming growth assay; conditions: one week
Method: as §1, §2

HCT-15 [5] = assay: In vitro soft agar colony forming growth assay; conditions: HCT-15, one week
Method: as §1, §2

DU145 = assay: In vitro soft agar colony forming growth assay; conditions: DU145, one week
Method: as §1, §2

LnCaP [6] = assay: In vitro soft agar colony forming growth assay; conditions: one week
Method: as §1, §2

Hep3B = assay: In vitro colorimetric cell death assay (MTT assay); conditions: Hep3B (hepatic cancer), 48 hours
Method: (§3) MTT assay was carried for assessing cell viability where the cells were grown in two-dimensional surface. The procedure for the assay is as follows. Cancer cells were plated in 96 well plates as per predetermined plating efficiency. The plates were incubated for 24 hours in a 5% CO2 atmosphere at 37° C., a range of concentrations of the compound of the present invention was added to the wells, the plates were incubated further for 48 hours in a 5% CO2 atmosphere, the plates were centrifuged twice at 3000 rpm for 3 minutes, the supernatant fluid was discarded, 100 uL of 0.5 mg/mL MIT solution was added and the plates were incubated for 4 hours in a 5% CO2 atmosphere at 37° C. The plates were then centrifuged twice at 3000 rpm for 3 minutes, supernatant was aspirated very carefully, 200 uL DMSO was added to each well to solubilize MTT crystals and mixed well by shaking the plates, the plates were incubated for 10 minutes in a 5% CO2 atmosphere at 37° C., the plates were placed on the shaker of an ELISA plate reader and the absorbance at 570 nm was measured, then the percentage of viable cells remaining was calculated by first subtracting the background absorbance then comparing to the absorbance of a non-drug-treated cell sample, and the results were plotted on a graph to determine the IC50 for the compound as known in the art. The reference drug used was Cisplatin.

L929 [7] = assay: In vitro colorimetric cell death assay (MTT assay); conditions: L929 (fibroblast), 48 hours
Method: as §3

Colo320 = assay: In vitro colorimetric cell death assay (MTT assay); conditions: Colo320 (colon cancer), 48 hours
Method: as §3

SiHa [8] = assay: In vitro colorimetric cell death assay (MTT assay); conditions: SiHa (cervical cancer), 48 hours
Method: as §3

T47D [9] = assay: In vitro colorimetric cell death assay (MTT assay); conditions: T47D (breast cancer), 48 hours
Method: as §3

HCT-15 [10] = assay: In vitro colorimetric cell death assay (MTT assay); conditions: HCT-15 (colon cancer), 48 hours
Method: as §3

NCIH23 = assay: In vitro colorimetric cell death assay (MTT assay); conditions: NCIH23 (lung cancer), 48 hours
Method: as §3

Colo205 = assay: In vitro colorimetric cell death assay (MTT assay); conditions: Colo205 (colon cancer), 48 hours
Method: as §3

LnCaP [11] = assay: In vitro colorimetric cell death assay (MTT assay); conditions: LnCaP (prostate cancer), 48 hours
Method: as §3

Q: Which results are given for `N.N.[Cl][Pt][Cl]` [Cisplatin]?
A: # of 3D Spheres Formed (±SD) (MDA MB 231 cell line; MDAMB 231, 1.1 uM): 35(±4); # of 3D Spheres Formed (±SD) (MDA MB 231 cell line; MDAMB 231, 11 uM): 24(±2); # of 3D Spheres Formed (±SD) (MDA MB 231 cell line; MDAMB 231, 110 uM): 16(±2); effect on cell / CD44 population ([1]; IC10 drug concentration): most of the cells remain unaffected; effect on CD44 cell population ([1]; IC25 drug concentration): good number of CD44 cell population surviving; IC50 (PC3): 52.5 µM; IC50 (L929 [2]): 9.44 µM; IC50 (SiHa [3]): 19.5 µM; IC50 (T47D [4]): 39.8 µM; IC50 (HCT-15 [5]): 40 µM; IC50 (DU145): 33.1 µM; IC50 (LnCaP [6]): 31.6 µM; IC50 (Hep3B): 37.6 µM; IC50 (L929 [7]): 38 µM; IC50 (Colo320): 38.3 µM; IC50 (SiHa [8]): 43.2 µM; IC50 (T47D [9]): 95.5 µM; IC50 (HCT-15 [10]): 49.1 µM; IC50 (NCIH23): 45.7 µM; IC50 (Colo205): 44.3 µM; IC50 (LnCaP [11]): 38.4 µM

Q: `COc1ccc(/C=C/C(=O)c2cccc(Nc3c4ccc(Cl)cc4nc4ccc(OC)cc34)c2)cc1` [Formula III, 1-(3-(6-chloro-2-methoxyacridin-9-ylamino)phenyl)-3-(4-methoxyphenyl)prop-2-en-1-one] was tested. Which “sphere reduction as compared to standard drug Cisplatin” value (MDA MB 231 cell line; MDA MB 231) did it give?
A: Significant sphere reduction

Q: And the “# of 3D Spheres Formed (±SD)” value (MDA MB 231 cell line; MDAMB 231, 1.1 uM)?
A: 15(±2)

Q: What about the “# of 3D Spheres Formed (±SD)” value (MDA MB 231 cell line; MDAMB 231, 11 uM) of the same molecule?
A: 0(±0)

Q: What about the “# of 3D Spheres Formed (±SD)” value (MDA MB 231 cell line; MDAMB 231, 110 uM) of the same molecule?
A: 0(±0)
